# US11773078B2, “Furin inhibitors” (Glaxosmithkline Intellectual Property Development Limited, priority 2018, dated 2023)
# Structures can show the parent of a compound that is named as a salt.
# How the values were obtained:
# [1] = test system: epithelial sodium channel (ENaC); experiment: Transepithelial Electrical Resistance (TEER) assay, primary CF delF508 or non-CF HBE cells (FIG. 6-9); type: cell-based, human
# Procedure: (§1) Primary cultures of CF delF508 or non-CF HBE cells are seeded onto permeable filter supports and grown for 12-14 days for a significant RTE to be measured for TEER assays.
# (§2) When the ENaC is active under basal conditions (at least in part due to protease cleavage inside the cell or at the apical membrane), there is a finite RTE that is affected by the Na+ current flowing through ENaC heterotrimers (αβγ or δβγ).
# [2] = biological target: T1, Furin (108-574-Tev-Flag-His) enzyme (Homo sapiens, UniProt P09958); experiment: Furin enzyme assay; type: biochemical
# T1 construct: Furin (108-574-Tev-Flag-His) enzyme was expressed and purified from CHO cells; TEV cleavage site (C); FLAG (C); His (C); made in house; host or cells: CHO cells
# Outline: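 CHO-expressed, purified furin construct at 40 pM in 100 mM HEPES pH7.5, 1 mM CaCl2, 0.005% Triton X-100. Eleven-point 1:3 series, 0.00017–10 μM final, incubated 2 h at room temperature and read on Envision. pXC50 from four-parameter fit.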
# [3] = test system: epithelial sodium channel (ENaC); experiment: TEER assay, chronic or acute treatment, Non-CF Polarized Human Lobar Bronchial Epithelial Cells; type: cell-based; set-up: RTE Before Amil / RTE After Amil: unit not given here; settings: for Delta RTE / RTE After Amil / RTE Before Amil: chronic treatment (overnight)
# Procedure: as §1, §2
# TGFβ in mouse lung = experiment: Bleomycin induced lung fibrosis model: TGFβ assay; type: in vivo; settings: relative to levels induced by Bleomycin in vehicle treated animals, *p < 0.05
# Procedure: (§3) Preclinical pulmonary fibrosis can be induced by single instillation of Bleomycin to the mouse lung. A 15-day Bleomycin protocol was developed to evaluate compounds of the invention in vivo for their ability to inhibit TGFβ secretion and collagen deposition in the mouse lung. On the day before Bleomycin instillation, compounds were administrated to mice based on the appropriate route and frequency. On the study initiation day, under Ketamine (80 mg/kg) and Xylazine (10 mg/kg) anesthesia, all the animals were cannulated oro-tracheally and 50 μL of normal saline (Sham control) or 0.03 U Bleomycin in 50 μL saline (all groups except sham control group) was delivered into the trachea. Compounds were dosed daily until the end of study on Day 15. On termination day, animals were euthanized using CO2 inhalation. The right lung was collected, washed in normal saline, weighed, flash frozen in liquid nitrogen and stored at −80° C. for hydroxyproline (a specific marker for collagen) and TGFβ assays.
# (§4) Flash frozen whole right lung tissues were homogenized in 500 μL of RIPA buffer containing PMSF and protease inhibitor cocktail using zirconium oxide bead based homogenizer (Bullet blender Gold, NextAdvance, Germany). Briefly, tissues were spun in the homogenizer at 4° C. for three cycles of 10 minutes each at 1000 g. A complete uniform tissue mixture was obtained using this procedure. The homogenate volume was made up to 1.5 mL by adding 1 mL of RIPA buffer containing PMSF and protease inhibitor cocktail to 500 μL of homogenate. The homogenate was stored as aliquots of 100-500 μL each at −80° C.
# Lung tissue homogenates (500 μL) were spun at 13,000 rpm for 20 minutes at 4° C. and supernatants were collected for TGFβ estimation. The assay was performed according to the manufacturer's manual (R&D systems: Cat #SMB100B). Briefly, the lung homogenates were activated by acid activation followed by neutralization to convert latent TGFβ to active TGFβ and the total TGFβ levels in supernatants were measured. Total protein levels in the lung supernatant were also determined.
# [4] = test system: epithelial sodium channel (ENaC); experiment: Transepithelial fluid transport assay, CF delF508 HBE cells; type: cell-based, human
# Procedure: Primary cultures of CF delF508 or non-CF HBE cells are seeded onto permeable filter supports and grown for 7 days for a significant RTE to be measured. Then, apical media is removed to initiate air-fluid interface (AFI) culture. When the cell monolayers are tight to fluid leak from basolateral to apical side of the cell monolayer, they are ready for fluid transport (fluid absorption) measurements.
# Two methods are being used to challenge cell monolayers in AFI culture where there is no media in the apical side:
# (1) A chronic overnight treatment was performed by adding the protease inhibitors (ENaC inhibitors) into the basolateral media. Then, […] of cell culture media is added to the apical side of each monolayer and fluid absorption measured (by the loss of volume in mls).
# (2) An acute treatment was performed when the protease inhibitors (ENaC inhibitors) are added in the apical media in that […] volume (or media only or DMSO equivalents as controls).
# In each case, fluid absorption is occurring against a 5× hydrostatic pressure gradient (i.e., there are 500 ml on the basolateral side and […] on the apical side).
# When the ENaC is active under basal conditions (at least in part due to protease cleavage inside the cell or at the apical membrane), the absorptive Na+ current flowing through ENaC heterotrimers (αβγ or δβγ) creates an osmotic driving force for fluid absorption.
# [5] = biological target: T2, furin (endogenous protease) in U20S cells (Homo sapiens, UniProt P09958); experiment: Furin cell-based assay (image-based, Golgi-targeted GFP with BMP10 furin/PCSK cleavage site); settings: 24-hour incubation, read-out: furin golgi cell pXC50 (converted);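 note: Read-out is mean GFP fluorescence of Golgi puncta per cell by high-content imaging, retained when furin inhibited, over an eleven-point 0.00017–10 µM series, four-parameter fit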
# T2 construct: the endogenous protease cleaves GFP; endogenous in cells; host or cells: U2OS cells transduced with a BacMam reporter
# [6] = test system: hydroxyproline (a specific marker for collagen) in mouse lung; experiment: Bleomycin induced lung fibrosis model: hydroxyproline assay; type: in vivo; settings: relative to levels induced by Bleomycin in vehicle treated animals, *p < 0.05
# Procedure: as §3, §4
# Acid hydrolysis: 500 μL of the homogenized lung parenchyma was transferred to glass vials, and an equal volume of 12N HCl was added (final concentration of HCl: 6N). The vials were purged with nitrogen gas, sealed and incubated overnight (16 h) under anoxic conditions at 110° C.
# Post incubation procedures: 35 μL of the sample from each tube or standard (prepared by serial dilution of hydroxyproline stock solution) was added onto a 96 well plate and the assay was performed as per the kit protocol (Quickzyme Biosciences: Cat #: QZBHYPR05). After the final color development, absorbance was measured by colorimetric analysis at 570 nm (using Thermoscan spectrum (Plate Reader) and results were recorded. Standard curve (linear graph) was generated by using hydroxyproline standards provided in the Quickzyme kit.
# furin and PCSK 5/6 = settings: serpin protease inhibitor; specificity for furin and PCSK 5/6; from Couture et al. 2015; cited from earlier work
# [7] = 10 mg/kg, Intra-peritoneal, Twice daily
# T2 sequence (P09958 108-794): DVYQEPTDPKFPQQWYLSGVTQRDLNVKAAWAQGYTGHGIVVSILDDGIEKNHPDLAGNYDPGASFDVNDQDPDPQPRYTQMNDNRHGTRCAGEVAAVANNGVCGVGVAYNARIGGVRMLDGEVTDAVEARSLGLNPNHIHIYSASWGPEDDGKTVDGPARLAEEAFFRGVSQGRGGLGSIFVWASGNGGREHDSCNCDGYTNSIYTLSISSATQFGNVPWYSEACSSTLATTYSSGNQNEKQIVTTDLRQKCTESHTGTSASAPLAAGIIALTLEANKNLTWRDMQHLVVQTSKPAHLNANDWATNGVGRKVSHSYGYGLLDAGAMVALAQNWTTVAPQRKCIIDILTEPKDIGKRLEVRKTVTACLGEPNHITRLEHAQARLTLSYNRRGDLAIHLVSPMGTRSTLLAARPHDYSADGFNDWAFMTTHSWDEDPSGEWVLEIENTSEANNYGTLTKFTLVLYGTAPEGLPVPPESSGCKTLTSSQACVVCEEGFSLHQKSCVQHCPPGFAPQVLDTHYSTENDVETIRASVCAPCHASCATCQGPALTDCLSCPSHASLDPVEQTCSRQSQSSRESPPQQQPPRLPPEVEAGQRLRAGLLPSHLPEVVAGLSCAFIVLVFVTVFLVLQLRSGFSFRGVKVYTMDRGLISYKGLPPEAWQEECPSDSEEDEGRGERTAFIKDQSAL
# T1 sequence (P09958 108-574): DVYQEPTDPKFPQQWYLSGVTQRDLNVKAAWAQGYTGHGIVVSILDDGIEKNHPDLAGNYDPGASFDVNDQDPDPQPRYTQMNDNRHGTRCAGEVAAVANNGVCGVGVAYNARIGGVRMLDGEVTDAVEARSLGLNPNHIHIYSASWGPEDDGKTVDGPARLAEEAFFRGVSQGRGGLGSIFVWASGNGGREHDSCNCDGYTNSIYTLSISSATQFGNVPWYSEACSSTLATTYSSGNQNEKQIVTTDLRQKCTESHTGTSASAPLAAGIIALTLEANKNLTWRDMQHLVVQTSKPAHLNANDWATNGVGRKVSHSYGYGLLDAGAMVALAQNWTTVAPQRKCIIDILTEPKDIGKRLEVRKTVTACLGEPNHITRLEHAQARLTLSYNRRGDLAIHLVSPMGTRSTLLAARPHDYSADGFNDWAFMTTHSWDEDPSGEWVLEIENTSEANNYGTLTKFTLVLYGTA
compound,measurement,setting,value
"CN(C)C(=O)COC(=O)Cc1ccc(OC(=O)c2ccc(NC(=N)N)cc2)cc1 [Camostat mesylate, reference compound]",inhibitory effect in TEER assay,"[1]; compared to Example 11, only mid-μM concentrations partially effective, FIG. 8 and FIG. 9",only partially inhibitory and modestly Inhibitory
"CC(=O)NCC1CCN(Cc2cc(Oc3ccc(N4CCN(CCC(=O)O)CC4)nc3)nc(-c3cc(Cl)cc(Cl)c3)c2)CC1 [Example 11, 3-(4-(5-((4-((4-(Acetamidomethyl)piperidin-1-yl)methyl)-6-(3,5-dichlorophenyl)pyridin-2-yl)oxy)pyridin-2-yl)piperazin-1-yl)propanoic acid, 4 hydrochloride]",furin enzyme pIC50,[2],9.6
same,acute effect on RTE,"[3]; acute treatment, up to 3 μM",equivalent acute effect to Aprotinin and a stronger effect than Camostat
same,inhibition of amiloride-sensitive RTE delta (remaining ENaC activity),"[3]; acute treatment, up to 3 μM",inhibited amiloride-sensitive RTE delta modestly
same,effect on the amiloride-sensitive RTE delta,"[3]; chronic overnight treatment, 3 μM, P<0.05",equivalent inhibitory effect
same,Delta RTE,[3]; 0.1 μM,+181 ± 16
same,RTE After Amil,[3]; 0.1 μM,697 ± 57
same,RTE Before Amil,[3]; 0.1 μM,517 ± 42
same,Delta RTE,[3]; 0.3 μM,+122 ± 6
same,RTE After Amil,[3]; 0.3 μM,548 ± 13
same,RTE Before Amil,[3]; 0.3 μM,426 ± 10
same,Delta RTE,[3]; 1 μM,+133 ± 14
same,RTE After Amil,[3]; 1 μM,605 ± 49
same,RTE Before Amil,[3]; 1 μM,472 ± 38
same,Delta RTE,[3]; 3 μM,+63 ± 7
same,RTE After Amil,[3]; 3 μM,390 ± 18
same,RTE Before Amil,[3]; 3 μM,326 ± 16
same,% inhibition of total TGFβ in lung,TGFβ in mouse lung; [7],69* %
same,attenuation of rate of fluid lost,[4]; 1 and 3 μM,50%
same,attenuation of total fluid volume lost,[4]; 1 and 3 μM,50%
same,absorptive fluid transport,"[4]; compared to 'DMSO Equivalent' controls, FIG. 10 and FIG. 11",concentration-dependent attenuation of absorptive fluid transport
same,EC50,[5],25.1 nM
same,% inhibition of hydroxyproline in lung,[6]; [7],67* %
same,amiloride-induced increase in RTE,"[1]; compared to 'Media only' and 'DMSO (LTA)' controls, FIG. 6, *p<0.05",concentration-dependent reduction in amiloride-induced increase in RTE
same,effectiveness on RTE compared to industry standards,"[1]; compared to Camostat at the same concentration and Aprotinin at ˜10 μM, FIG. 7, overlap in CRCs only at 3 μM",more effective
"CC(=O)NCC1CCN(Cc2cc(Oc3cnc(N4CCN(CCC(=O)O)CC4)nc3)nc(-c3cc(Cl)cc(Cl)c3)c2)CC1 [Example 263, 3-(4-(5-((4-((4-(acetamidomethyl)piperidin-1-yl)methyl)-6-(3,5-dichlorophenyl)pyridin-2-yl)oxy)pyrimidin-2-yl)piperazin-1-yl)propanoic acid]",furin enzyme pIC50,[2],9.8
same,% inhibition of total TGFβ in lung,TGFβ in mouse lung; [7],86* %
same,EC50,[5],10 nM
same,% inhibition of hydroxyproline in lung,[6]; [7],60* %
"C[C@@H](O)CN1CCN(c2ncc(Oc3cc(CN4CCC(CC(=O)O)CC4)cc(-c4cc(Cl)cc(Cl)c4)n3)cn2)CC1 [Example 298, (R)-2-(1-((2-(3,5-Dichlorophenyl)-6-((2-(4-(2-hydroxypropyl)piperazin-1-yl)pyrimidin-5-yl)oxy)pyridin-4-yl)methyl)piperidin-4-yl)acetic acid]",furin enzyme pIC50,[2],9.2
same,% inhibition of total TGFβ in lung,"TGFβ in mouse lung; 10 mg/kg, Oral, Once daily",23* %
same,EC50,[5],20 nM
same,% inhibition of hydroxyproline in lung,"[6]; 10 mg/kg, Oral, Once daily",16* %
"O=C(O)CC1CCN(Cc2cc(Oc3cnc(N4CCN(CCO)CC4)nc3)nc(-c3cc(Cl)cc(Cl)c3)c2)CC1 [Example 306, 2-(1-((2-(3,5-dichlorophenyl)-6-((2-(4-(2-hydroxyethyl)piperazin-1-yl)pyrimidin-5-yl)oxy)pyridin-4-yl)methyl)piperidin-4-yl)acetic acid]",furin enzyme pIC50,[2],8.9
same,% inhibition of total TGFβ in lung,"TGFβ in mouse lung; 10 mg/kg, Oral, Once daily",31* %
same,EC50,[5],25.1 nM
same,% inhibition of hydroxyproline in lung,"[6]; 10 mg/kg, Oral, Once daily",11%
"O=C(O)CC1CCN(Cc2cc(Oc3cnc(N4CCN5CCC4C5)nc3)nc(-c3cc(Cl)cc(Cl)c3)c2)CC1 (stereo not drawn) [Example 334, 2-(1-((2-((2-(1,4-Diazabicyclo[3.2.1]octan-4-yl)pyrimidin-5-yl)oxy)-6-(3,5-dichlorophenyl)pyridin-4-yl)methyl)piperidin-4-yl)acetic acid, 4 hydrochloride]",furin enzyme pIC50,[2],8.9
same,% inhibition of total TGFβ in lung,"TGFβ in mouse lung; 30 mg/kg, Oral, Once daily",36* %
same,EC50,[5],20 nM
same,% inhibition of hydroxyproline in lung,"[6]; 30 mg/kg, Oral, Once daily",34* %
"CN1CCN(c2cnc(Oc3cc(CN4CCC(CC(=O)O)CC4)cc(-c4cc(Cl)cc(Cl)c4)n3)cn2)CC1 [Example 339, 2-(1-((2-(3,5-Dichlorophenyl)-6-((5-(4-methylpiperazin-1-yl)pyrazin-2-yl)oxy)pyridin-4-yl)methyl)piperidin-4-yl)acetic acid]",furin enzyme pIC50,[2],8.7
same,% inhibition of total TGFβ in lung,"TGFβ in mouse lung; 10 mg/kg, Oral, Once daily",22%
same,EC50,[5],50.1 nM
same,% inhibition of hydroxyproline in lung,"[6]; 10 mg/kg, Oral, Once daily",4%
"CN1CCCN(c2cnc(Oc3cc(CN4CCC(CC(=O)O)CC4)cc(-c4cc(Cl)cc(Cl)c4)n3)cn2)CC1 [Example 340, 2-(1-((2-(3,5-dichlorophenyl)-6-((5-(4-methyl-1,4-diazepan-1-yl)pyrazin-2-yl)oxy)pyridin-4-yl)methyl)piperidin-4-yl)acetic acid]",furin enzyme pIC50,[2],8.8
same,% inhibition of total TGFβ in lung,"TGFβ in mouse lung; 30 mg/kg, Oral, Once daily",26* %
same,EC50,[5],20 nM
same,% inhibition of hydroxyproline in lung,"[6]; 30 mg/kg, Oral, Once daily",21* %
"CC(=O)NCC1CCN(Cc2cc(Oc3cnc(N4CCN(CCC(C)C(=O)O)CC4)nc3)nc(-c3cc(Cl)cc(Cl)c3)c2)CC1 (stereo not drawn) [Example 369, 4-(4-(5-((4-((4-(Acetamidomethyl)piperidin-1-yl)methyl)-6-(3,5-dichlorophenyl)pyridin-2-yl)oxy)pyrimidin-2-yl)piperazin-1-yl)-2-methylbutanoic acid, 4 hydrochloride]",furin enzyme pIC50,[2],9.3
same,% inhibition of total TGFβ in lung,"TGFβ in mouse lung; 10 mg/kg, Oral, Once daily",75* %
same,EC50,[5],5.01 nM
same,% inhibition of hydroxyproline in lung,"[6]; 10 mg/kg, Oral, Once daily",62* %
"α1-PDX: ""an engineered variant of naturally occurring α-1-antitrypsin serum protease inhibitor""; ""a serpin superfamily wide protease inhibitor with high specificity for furin and PCSK 5/6""",Ki,furin and PCSK 5/6,≥ 0.6 nM
